Entries after “also recorded” stand apart in the source; their conditions may differ.
Columns and labels:
[1] = test system: OCI-Ly10 human ABC DLBCL xenograft; assay: In vivo efficacy in subcutaneous OCI-Ly10 human ABC-DLBCL xenograft model; set-up: species or system mouse; conditions: SCID mice, oral BID, acalabrutinib 20 mg/kg; for TGI (tumor growth inhibition): capivasertib 130 mg/kg 4 days on/3 days off, after 25 days of treatment; for MAX AVG BODY WEIGHT LOSS: capivasertib 130 mg/kg, 25-day study
Protocol: OCI-ly10 human ABC-DLBCL tumor cells (5×10^6/mouse) were implanted subcutaneously in female CB.17 SCID mice. […] Tumor length and width was measured by caliper and tumor volume was calculated using the formula (length×width^2)*π/6.

WILL1 = assay: Cell viability assay (Cell Titer Glo, 72 hours); type: cell-based; conditions: WILL-1, WILL1, DLBCL Int subtype, single agent
Protocol: (§1) In addition, the study further explored the mechanism of action of the combination of acalabrutinib and capivasertib using western blot analysis.
(§2) Cell viability was measured using Cell Titer Glo reagent and readouts were taken using a Tecan plate reader with a 100 ms integration time. Data analysis was carried out using GeneData software version 15. A growth inhibition value less than 1 μM (GI50<1 μM) indicates sensitivity.

HLY1 = assay: Cell viability assay (Cell Titer Glo, 72 hours); type: cell-based; conditions: Homo sapiens, HLY1, DLBCL ABC subtype, single agent
Protocol: as §1, §2

SuDHL6 = assay: Cell viability assay (Cell Titer Glo, 72 hours); type: cell-based; conditions: Homo sapiens, SU-DHL-6, SuDHL6, DLBCL GCB subtype, single agent
Protocol: as §1, §2

Karpas-422 = assay: Cell viability assay (Cell Titer Glo, 72 hours); type: cell-based; conditions: Homo sapiens, Karpas-422, DLBCL GCB subtype, single agent
Protocol: as §1, §2

SuDHL4 = assay: Cell viability assay (Cell Titer Glo, 72 hours); type: cell-based; conditions: Homo sapiens, SU-DHL-4, SuDHL4, DLBCL GCB subtype, single agent
Protocol: as §1, §2

OCI-LY10 = assay: Cell viability assay (Cell Titer Glo, 72 hours); type: cell-based; conditions: Homo sapiens, OCI-LY10, DLBCL ABC subtype, single agent
Protocol: as §1, §2

TMD8 = assay: Cell viability assay (Cell Titer Glo, 72 hours); type: cell-based; conditions: Homo sapiens, TMD8, DLBCL ABC subtype, single agent
Protocol: as §1, §2

OCI-LY3 = assay: Cell viability assay (Cell Titer Glo, 72 hours); type: cell-based; conditions: Homo sapiens, OCI-LY3, DLBCL ABC subtype, single agent
Protocol: as §1, §2

U2932 = assay: Cell viability assay (Cell Titer Glo, 72 hours); type: cell-based; conditions: Homo sapiens, U2932, DLBCL ABC subtype, single agent
Protocol: as §1, §2

WSU-DLCL2 = assay: Cell viability assay (Cell Titer Glo, 72 hours); type: cell-based; conditions: Homo sapiens, WSUDLCL2, WSU-DLCL2, DLBCL GCB subtype, single agent
Protocol: as §1, §2

OCI-LY19 = assay: Cell viability assay (Cell Titer Glo, 72 hours); type: cell-based; conditions: Homo sapiens, OCI-LY19, DLBCL GCB subtype, single agent
Protocol: as §1, §2

OCI-LY10 cells = assay: Western blot analysis of phospho-proteins; type: cell-based, human; conditions: 2 or 24 hours; for phosphorylation of AKTS473: 100 nM acalabrutinib or both
Description: (§3) Cells were then lysed in SDS lysis buffer, centrifuged and protein concentrations estimated. Samples were loaded onto Bis-Tris Novex gels, transferred onto nitrocellulose membranes and probed for phospho-proteins of interest.

TMD8 cells = assay: Western blot analysis of phospho-proteins; type: cell-based, human; conditions: 2 or 24 hours; for phosphorylation of AKTS473: 100 nM acalabrutinib or both
Description: as §3

[2] = test system: TMD8 human ABC DLBCL xenograft; assay: In vivo efficacy in subcutaneous TMD8 human ABC-DLBCL xenograft model; set-up: species or system mouse; conditions: SCID mice, oral BID, acalabrutinib 20 mg/kg; for TGI (tumor growth inhibition): capivasertib 130 mg/kg 4 days on/3 days off, after 24 days of treatment; for MAX AVG BODY WEIGHT LOSS: capivasertib 130 mg/kg, 24-day study
Protocol: (§4) TMD8 human ABC-DLBCL tumor cells (5×10^6/mouse) were implanted subcutaneously in female CB.17 SCID mice. […] Tumor length and width was measured by caliper and tumor volume was calculated using the formula (length×width^2)*π/6.

[3] = Plasma pharmacokinetics in the TMD8 xenograft efficacy study; type: in vivo, mouse; conditions: TMD8 xenograft mice; oral; day 20; 1, 2, 4 and 8-hour time points
Protocol: as §4

Row | MAX AVG BODY WEIGHT LOSS [1] [%] | GI50 (SuDHL6) [µM] | GI50 (Karpas-422) [µM] | GI50 (SuDHL4) [µM] | GI50 (OCI-LY10) [µM] | GI50 (OCI-LY3) [µM] | GI50 (OCI-LY19) [µM] | MAX AVG BODY WEIGHT LOSS [2] [%] | SMILES | TGI (tumor growth inhibition) [1] [%] | GI50 (WILL1) [µM] | GI50 (HLY1) [µM] | GI50 (TMD8) [µM] | GI50 (U2932) [µM] | GI50 (WSU-DLCL2) [µM] | phosphorylation of AKTS473 (OCI-LY10 cells; 1 μM capivasertib) | phosphorylation of AKTS473 (TMD8 cells; 1 μM capivasertib) | TGI (tumor growth inhibition) [2] [%] | also measured
1 | 3 | 0.36 | 0.2 | 0.71 | > 3 | > 3 | > 3 | 2 | NC1(C(=O)N[C@@H](CCO)c2ccc(Cl)cc2)CCN(c2ncnc3[nH]ccc23)CC1 [capivasertib, (S)-4-amino-N-(1-(4-chlorophenyl)-3-hydroxypropyl)-1-(7H-pyrrolo[2,3-d]pyrimidin-4-yl)piperidine-4-carboxamide] | 0 | > 3 | > 3 | > 3 | > 3 | 0.06 | increased | increased | 0 | TGI (tumor growth inhibition) ([1]; listed as Capivasertib): 0%; phosphorylation of the downstream substrates PRAS40, GSK3β, FOXO and S6 (OCI-LY10 cells; 1 μM capivasertib): decreased; phosphorylation of the downstream substrates PRAS40, GSK3β, FOXO and S6 (TMD8 cells; 1 μM capivasertib): decreased; TGI (tumor growth inhibition) ([2]; listed as Capivasertib): 0%
2 | 2 | > 3 | > 3 | > 3 | 0.022 | > 3 | > 3 | 5 | CC#CC(=O)N1CCC[C@H]1c1nc(-c2ccc(C(=O)Nc3ccccn3)cc2)c2c(N)nccn12 [acalabrutinib, 4-{8-amino-3-[(2S)-1-(but-2-ynoyl)pyrrolidin-2-yl]imidazo[1,5-a]pyrazin-1-yl}-N-(pyridin-2-yl)benzamide] | 74 | > 3 | > 3 | 0.025 | > 3 | > 3 | decreased | decreased | 81 | TGI (tumor growth inhibition) ([1]; listed as Acalabrutinib): 74%; phosphorylation of BTK (OCI-LY10 cells; 100 nM acalabrutinib): decrease; phosphorylation of BTK (TMD8 cells; 100 nM acalabrutinib): decrease; TGI (tumor growth inhibition) ([2]; listed as Acalabrutinib): 81%; steady-state drug exposure levels (unbound plasma concentrations), single agent versus combination [3]: similar; also recorded: comparable

From patent US12691113B2 (AstraZeneca AB, priority 2019, dated 2026)
